Measurements from patent US20190022135A1, “TREATMENT FOR CHITIN-CONTAINING MICROORGANISMS” (Benchmark Animal Health Limited, priority 2016, published 2019).

Tests used:
Saprolegnia spores = assay: Saprolegnia spore viability in biofilms (CellTiter 96 MTS assay); format: cell-based; conditions: 4 h
Protocol: The effect of treating Saprolegnia-spores with combinations of boric acid and propionic acid was investigated in biofilm preparations since this is one of the most challenging conditions under which effects can be tested.
Spores were produced to form biofilms. Saprolegnia hyphae were excised from GY agar plates and then incubated in GY broth (15±1° C., 2 days), giving additional hyphal growth. Young hyphae were washed in SAW, transferred to two glass bottles containing one liter of SAW and incubated at 21±1° C. (24 h) to allow zoospore production. Suspensions of zoospores were filtered (tea filter, 0.5 mm pores) resulting in zoospore encystment. Cysts were counted by hemocytometer, the cyst suspensions were adjusted to 1.0±104 spores/L. The suspension was then used in the biofilm formation studies (chambered cover glass system) within 3 h of counting.
Treatment with BA and/or PA was for 4 hours in stagnate, aerated water after which the water circulation was resumed. Biofilm preparations were tested for viability as described (Ali et al. 2014). In brief, CellTiter 96 aqueous one solution cell proliferation assay (Promega) was used. The test is based on tetrazolium compound [3-(4,5-dimethylthiazol-2-yl)-5-(3-carboxy-methoxyphenyl)-2-(4-sulfophenyl)-2H-tetrazolium, inner salt; MTS] being reduced by viable cells resulting in the formation of formazan products from MTS. The reaction is based on mitochondrial enzymes being active (dehydrogenase) (Lopes et al. 2013), and is an indicator of metabolic rate of the mitochondria.
Tests were run in 72-well plates with biofilm formed in the wells. BA and/or PA was then added to each tested well (except controls) at increasing concentrations, 1-4 g/L for BA and 31.4 to 125.6 mM/L for PA. Bronopol was used as a positive treatment but at 300 mg/L concentration, and SAW as negative control. Wells with the MTS reagent without spores were used as a background control. The plates were incubated at 15-20° C. Reading was done following 4 h incubation of BA and PA. Formazan product was measured at 490 nm. MTS reduction is proportional to the number and activity of live spores. Spore viability was calculated by: % viability=100×(OD490 value for the sample−mean background OD490)/(mean OD490 for non-treated water control−mean background OD490).

[1] = tested on: eggs and/or fry of Atlantic salmon; conditions: 50 mg/L treatment for 1 h; cited from earlier work
Saprolegnia sp. = assay: Effect on Saprolegnia zoospores, spores and hyphae (stated finding)
sea lice = assay: In vivo studies: number of attached sea lice after treatment; conditions: 2.75 ppm/L PA only, 15 min exposure, 4 days post treatment
Protocol: Water salinity: […]; Temperature: 8.5° C.; Oxygen: minimum 8 mg/L in water during treatment (8-10 mg/L measured).

O=[N+]([O-])C(Br)(CO)CO [Pyzece, Bronopol]
viability level (OD value) (Saprolegnia spores; 300 mg/L, biofilm, compared with BA and PA combination (approx. 0.3)): same viability level
egg toxicity [1]: egg mortality

OB(O)O [BA, boric acid]
viability (OD value) (Saprolegnia spores; BA from 1 g/L up to 4 g/L, biofilm): declining viability
effect on zoospore production and release and on zoosporangia (Saprolegnia sp.): interferes with the production and subsequent release of zoospores

CCC(=O)O [PA, propionic acid]
viability (OD value) (Saprolegnia spores; PA 4 ml added (equivalent to 125.6 mM/L), biofilm): lower OD value
viability, statistical evaluation against 4 g/L of BA (Saprolegnia spores; PA (4 ml)): significantly lower viability
reduction of the number of attached sea lice (sea lice): Reduced the number of attached sea lice by 30%
effect on spores and hyphae (Saprolegnia sp.): direct toxic effect
